Measured values published in the supplement of paper PMC12463676, “Small-molecule dissolution of stress granules by redox modulation benefits ALS models” (Nature Chemical Biology, 2025).

Columns and labels:
lipoamide = compound: NC(=O)CCCCC1CCSS1 [lipoamide]; assay: thermal stability z-score vs DMSO; higher = more thermally stabilized by treatment; settings: HeLa, lipoamide concentration 100 µM
Procedure: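 Cellular thermal proteome profiling in HeLa cells. Cells were treated with 100 µM lipoamide for 1 h, with or without 1 mM arsenate for a further 1 h, then heated to ten temperatures (37-66.3 °C), and soluble protein was quantified by TMT mass spectrometry relative to 0.1% DMSO controls. The thermal stability score (sum of log2 fold changes minus the abundance score) was transformed to a z-score; mean of n = 3 experiments.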

potassium arsenate = compound: O=[As]([O-])(O)O.[K+] [potassium arsenate]; assay: as above; settings: HeLa; arsenate concentration 1 mM
Procedure: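 Cellular thermal proteome profiling in HeLa cells treated with 1 mM arsenate for 1 h (DMSO pretreatment), heated to ten temperatures (37-66.3 °C). Soluble protein was quantified by TMT mass spectrometry relative to DMSO controls; the thermal stability score was transformed to a z-score; mean of n = 3 experiments.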

[1] = arsenate co-treatment: 1 mM arsenate 1 h
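Note: each temperature applied for 3 min, abundance score taken as mean log2 fold change at the two lowest temperatures, z-score obtained by mean subtraction and division by SD.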

Sequence of UniProt Q96S99 (Q96S99 whole entry): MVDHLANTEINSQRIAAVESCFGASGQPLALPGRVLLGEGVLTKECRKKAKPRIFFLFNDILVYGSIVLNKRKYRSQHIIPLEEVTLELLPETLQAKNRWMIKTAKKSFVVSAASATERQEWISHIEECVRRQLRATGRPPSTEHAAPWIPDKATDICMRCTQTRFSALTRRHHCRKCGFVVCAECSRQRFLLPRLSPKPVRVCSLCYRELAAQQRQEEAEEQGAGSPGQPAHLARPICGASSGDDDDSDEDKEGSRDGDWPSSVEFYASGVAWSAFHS
Sequence of UniProt P14618 (P14618 whole entry, looked up): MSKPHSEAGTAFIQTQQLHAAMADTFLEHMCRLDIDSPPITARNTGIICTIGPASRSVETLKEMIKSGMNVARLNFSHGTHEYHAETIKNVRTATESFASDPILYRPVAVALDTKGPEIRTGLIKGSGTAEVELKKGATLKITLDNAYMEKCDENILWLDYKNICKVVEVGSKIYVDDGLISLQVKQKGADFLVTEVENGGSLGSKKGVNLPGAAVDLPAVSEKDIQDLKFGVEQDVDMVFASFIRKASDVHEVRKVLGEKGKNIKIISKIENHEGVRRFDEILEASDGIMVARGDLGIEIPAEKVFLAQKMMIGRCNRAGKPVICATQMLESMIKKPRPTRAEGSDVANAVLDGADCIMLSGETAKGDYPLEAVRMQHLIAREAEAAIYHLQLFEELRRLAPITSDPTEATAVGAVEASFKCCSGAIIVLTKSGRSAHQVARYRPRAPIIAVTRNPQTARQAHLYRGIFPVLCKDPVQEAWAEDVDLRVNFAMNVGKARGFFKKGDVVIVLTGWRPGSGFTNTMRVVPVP
Sequence of UniProt Q13616 (Q13616 whole entry): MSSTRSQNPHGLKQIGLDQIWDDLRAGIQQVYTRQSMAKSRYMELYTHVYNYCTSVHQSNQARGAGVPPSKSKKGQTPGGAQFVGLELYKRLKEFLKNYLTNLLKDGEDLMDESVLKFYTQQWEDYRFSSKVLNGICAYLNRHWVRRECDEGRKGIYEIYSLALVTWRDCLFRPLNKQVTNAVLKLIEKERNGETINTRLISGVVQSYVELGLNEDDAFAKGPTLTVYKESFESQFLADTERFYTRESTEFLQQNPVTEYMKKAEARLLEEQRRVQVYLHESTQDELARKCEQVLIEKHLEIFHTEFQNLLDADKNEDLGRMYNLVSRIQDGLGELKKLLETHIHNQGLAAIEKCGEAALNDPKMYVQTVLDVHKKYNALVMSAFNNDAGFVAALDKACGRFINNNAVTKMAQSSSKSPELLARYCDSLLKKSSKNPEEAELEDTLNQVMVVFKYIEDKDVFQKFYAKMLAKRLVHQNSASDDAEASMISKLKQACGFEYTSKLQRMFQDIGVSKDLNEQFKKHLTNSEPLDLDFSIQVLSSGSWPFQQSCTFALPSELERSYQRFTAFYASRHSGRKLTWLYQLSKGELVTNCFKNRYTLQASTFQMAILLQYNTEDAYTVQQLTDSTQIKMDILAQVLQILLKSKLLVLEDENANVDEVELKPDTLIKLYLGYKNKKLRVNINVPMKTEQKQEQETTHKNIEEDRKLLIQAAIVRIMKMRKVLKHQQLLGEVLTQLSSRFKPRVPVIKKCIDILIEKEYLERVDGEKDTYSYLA
Sequence of UniProt P14384 (P14384 whole entry): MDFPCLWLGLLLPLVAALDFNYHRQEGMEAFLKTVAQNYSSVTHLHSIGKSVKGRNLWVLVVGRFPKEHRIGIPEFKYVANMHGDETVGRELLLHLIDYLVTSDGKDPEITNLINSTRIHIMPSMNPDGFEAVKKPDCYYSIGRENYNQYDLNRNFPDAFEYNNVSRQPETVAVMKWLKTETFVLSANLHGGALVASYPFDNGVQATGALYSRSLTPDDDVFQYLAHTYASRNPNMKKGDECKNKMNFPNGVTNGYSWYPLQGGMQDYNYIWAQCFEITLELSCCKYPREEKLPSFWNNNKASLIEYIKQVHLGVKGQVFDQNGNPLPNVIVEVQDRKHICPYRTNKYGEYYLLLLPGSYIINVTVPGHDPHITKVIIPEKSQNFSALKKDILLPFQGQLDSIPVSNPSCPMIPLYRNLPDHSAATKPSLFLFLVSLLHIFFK
Sequence of UniProt O95352 (O95352 whole entry): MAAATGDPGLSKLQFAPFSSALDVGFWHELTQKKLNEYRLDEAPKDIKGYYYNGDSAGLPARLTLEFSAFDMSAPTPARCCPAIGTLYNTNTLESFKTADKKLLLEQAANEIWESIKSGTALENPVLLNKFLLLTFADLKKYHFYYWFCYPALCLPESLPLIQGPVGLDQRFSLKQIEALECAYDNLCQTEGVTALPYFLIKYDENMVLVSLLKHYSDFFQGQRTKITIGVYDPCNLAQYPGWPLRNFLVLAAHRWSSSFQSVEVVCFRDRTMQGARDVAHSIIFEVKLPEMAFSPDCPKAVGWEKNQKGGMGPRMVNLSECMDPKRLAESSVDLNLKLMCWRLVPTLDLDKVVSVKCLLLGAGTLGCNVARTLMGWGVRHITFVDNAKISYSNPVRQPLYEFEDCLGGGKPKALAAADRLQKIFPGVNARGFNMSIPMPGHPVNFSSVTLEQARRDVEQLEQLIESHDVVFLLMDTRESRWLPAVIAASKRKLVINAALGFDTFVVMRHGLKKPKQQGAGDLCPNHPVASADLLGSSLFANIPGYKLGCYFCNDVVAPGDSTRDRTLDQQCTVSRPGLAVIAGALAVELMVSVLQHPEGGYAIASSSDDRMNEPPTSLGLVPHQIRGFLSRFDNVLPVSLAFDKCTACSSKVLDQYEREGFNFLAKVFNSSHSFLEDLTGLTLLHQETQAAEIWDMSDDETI
Sequence of UniProt O15269 (O15269 whole entry): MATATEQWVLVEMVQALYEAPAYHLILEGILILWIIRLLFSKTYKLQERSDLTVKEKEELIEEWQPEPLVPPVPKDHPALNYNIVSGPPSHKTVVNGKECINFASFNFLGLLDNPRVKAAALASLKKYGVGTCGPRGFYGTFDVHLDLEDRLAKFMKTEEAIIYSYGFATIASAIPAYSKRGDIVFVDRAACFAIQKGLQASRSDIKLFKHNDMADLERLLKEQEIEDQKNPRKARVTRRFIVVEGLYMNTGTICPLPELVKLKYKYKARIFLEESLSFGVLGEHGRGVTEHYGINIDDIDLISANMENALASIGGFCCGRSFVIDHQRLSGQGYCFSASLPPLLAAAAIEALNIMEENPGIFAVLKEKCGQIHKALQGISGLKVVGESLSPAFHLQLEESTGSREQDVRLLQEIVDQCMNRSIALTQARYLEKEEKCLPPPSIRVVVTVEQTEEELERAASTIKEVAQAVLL
Sequence of UniProt Q9Y5S2 (Q9Y5S2 whole entry): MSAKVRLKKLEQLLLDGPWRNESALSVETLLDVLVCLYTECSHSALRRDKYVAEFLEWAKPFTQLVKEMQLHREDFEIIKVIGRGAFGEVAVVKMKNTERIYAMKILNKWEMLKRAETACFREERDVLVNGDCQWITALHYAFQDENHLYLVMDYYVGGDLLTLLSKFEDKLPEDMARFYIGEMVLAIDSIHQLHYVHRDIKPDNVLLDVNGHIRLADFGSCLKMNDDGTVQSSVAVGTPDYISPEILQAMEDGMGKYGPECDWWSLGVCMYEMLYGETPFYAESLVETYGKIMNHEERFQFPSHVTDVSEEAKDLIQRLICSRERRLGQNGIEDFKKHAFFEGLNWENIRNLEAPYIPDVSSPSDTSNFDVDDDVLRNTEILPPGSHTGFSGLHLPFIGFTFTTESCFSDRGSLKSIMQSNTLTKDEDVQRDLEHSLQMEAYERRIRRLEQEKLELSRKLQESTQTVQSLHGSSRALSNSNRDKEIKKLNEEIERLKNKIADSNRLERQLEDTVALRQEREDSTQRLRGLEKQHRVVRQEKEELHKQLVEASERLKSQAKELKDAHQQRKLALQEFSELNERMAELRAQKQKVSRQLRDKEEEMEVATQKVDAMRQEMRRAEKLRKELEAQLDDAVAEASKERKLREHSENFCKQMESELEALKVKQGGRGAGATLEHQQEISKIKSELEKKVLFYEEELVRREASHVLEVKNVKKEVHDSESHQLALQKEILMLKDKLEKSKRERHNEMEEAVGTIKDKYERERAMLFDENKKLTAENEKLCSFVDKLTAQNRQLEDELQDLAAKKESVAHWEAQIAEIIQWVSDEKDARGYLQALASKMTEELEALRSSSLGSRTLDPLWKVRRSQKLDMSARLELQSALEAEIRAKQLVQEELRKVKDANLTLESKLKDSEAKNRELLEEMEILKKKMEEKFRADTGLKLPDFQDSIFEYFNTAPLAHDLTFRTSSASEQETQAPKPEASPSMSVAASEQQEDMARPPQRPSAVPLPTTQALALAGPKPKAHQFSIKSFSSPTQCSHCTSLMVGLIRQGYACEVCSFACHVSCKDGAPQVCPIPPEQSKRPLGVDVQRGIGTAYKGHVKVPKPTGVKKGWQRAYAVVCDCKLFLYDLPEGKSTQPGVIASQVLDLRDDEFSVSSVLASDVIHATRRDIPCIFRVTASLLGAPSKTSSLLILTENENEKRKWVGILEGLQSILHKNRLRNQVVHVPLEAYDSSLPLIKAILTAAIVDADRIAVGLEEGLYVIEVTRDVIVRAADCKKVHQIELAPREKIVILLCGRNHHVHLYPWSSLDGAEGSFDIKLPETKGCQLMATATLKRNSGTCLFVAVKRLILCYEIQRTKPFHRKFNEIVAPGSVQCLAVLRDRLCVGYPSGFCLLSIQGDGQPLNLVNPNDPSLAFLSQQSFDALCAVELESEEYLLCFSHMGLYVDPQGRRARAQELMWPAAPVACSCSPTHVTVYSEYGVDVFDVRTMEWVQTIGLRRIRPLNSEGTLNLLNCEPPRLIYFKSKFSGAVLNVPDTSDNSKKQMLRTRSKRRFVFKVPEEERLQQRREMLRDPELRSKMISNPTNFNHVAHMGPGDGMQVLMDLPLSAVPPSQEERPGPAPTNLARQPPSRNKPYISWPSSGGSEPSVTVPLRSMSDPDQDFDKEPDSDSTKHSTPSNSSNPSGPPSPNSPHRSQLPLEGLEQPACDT
Sequence of UniProt Q9BRA0 (Q9BRA0 whole entry): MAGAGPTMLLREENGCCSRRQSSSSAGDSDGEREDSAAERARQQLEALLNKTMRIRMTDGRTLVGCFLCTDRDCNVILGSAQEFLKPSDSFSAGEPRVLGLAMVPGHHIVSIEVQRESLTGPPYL

Row | Target | thermal stability z-score (lipoamide; [1]) | thermal stability z-score (lipoamide; arsenate co-treatment: none) | thermal stability z-score (potassium arsenate)
1 | PLEKHF1 (UniProt Q96S99) | -0.218 | -0.0271 | -0.0692
2 | CUL1 (UniProt Q13616) | 0.708 | 0.275 | -0.108
3 | CNOT1 (UniProt A5YKK6) | -0.186 | 0.0688 | 1.04
4 | LRPAP1 (UniProt P30533) | -1.07 | -0.56 | -0.32
5 | ABCD3 (UniProt P28288) | -0.0141 | -0.0329 | -0.13
6 | TCERG1 (UniProt O14776) | 0.7 | 0.361 | -0.0887
7 | CDC42BPB (UniProt Q9Y5S2) | -0.57 | -0.124 | -0.221
8 | CBX1 (UniProt P83916) | 0.402 | 0.214 | 0.0814
9 | RPL22L1 (UniProt Q6P5R6) | -0.147 | -0.537 | -0.919
10 | NUDCD1 (UniProt Q96RS6) | -0.287 | -0.282 | -0.0861
11 | SPTLC1 (UniProt O15269) | -0.481 | -0.72 | 0.833
12 | AVL9 (UniProt Q8NBF6) | 0.0764 | 0.143 | 0.203
13 | RHOC (UniProt P08134) | 0.307 | 0.963 | 0.995
14 | YARS (UniProt P54577) | 0.161 | 0.213 | 2.64
15 | RAB11FIP1 (UniProt Q6WKZ4) | 0.271 | -0.127 | -0.162
16 | MRPL27 (UniProt Q9P0M9) | -0.0242 | 0.00566 | -0.0764
17 | PFKP (UniProt Q01813) | 0.365 | 0.542 | 0.0448
18 | MRPL18 (UniProt Q9H0U6) | -0.339 | -0.0505 | -0.799

Row | Target | thermal stability z-score (lipoamide; [1]) | thermal stability z-score (lipoamide; arsenate co-treatment: none) | thermal stability z-score (potassium arsenate)
19 | GART (UniProt P22102) | 0.221 | -0.0107 | -0.419
20 | IQGAP1 (UniProt P46940) | 0.776 | 0.818 | -1.08
21 | TFAP2A (UniProt P05549) | 0.831 | 0.868 | 0.566
22 | NF1 (UniProt P21359) | -0.487 | -0.235 | -0.72
23 | PTPN9 (UniProt P43378) | -0.0496 | 0.0634 | 0.0393
24 | ALDH3B1 (UniProt P43353) | -0.215 | 0.338 | 1.26
25 | CENPV (UniProt Q7Z7K6) | 0.172 | 0.192 | -0.0535
26 | GPAA1 (UniProt O43292) | -1.09 | -1.12 | 0.145
27 | PKM (UniProt P14618) | 0.109 | 0.0166 | -0.166
28 | SPG20 (UniProt Q8N0X7) | 0.715 | 0.609 | 0.193
29 | CPM (UniProt P14384) | 0.0529 | -0.163 | 0.405
30 | PMM1 (UniProt Q92871) | -0.14 | 0.072 | 0.274
31 | TIMM21 (UniProt Q9BVV7) | 0.0115 | 0.000788 | 0.255
32 | NAA38 (UniProt Q9BRA0) | 0.599 | 0.425 | -0.643
33 | AAK1 (UniProt Q2M2I8) | 0.286 | 0.0193 | 0.0056
34 | ZCRB1 (UniProt Q8TBF4) | 0.506 | 0.194 | 0.155
35 | TBC1D4 (UniProt O60343) | -0.14 | 0.292 | 0.51
36 | ATG7 (UniProt O95352) | -0.324 | 0.291 | 0.16
